Assay results: article PMC5218480 (PLoS ONE, 2017)

Tested on: MV-4-11 cells
Experiment: Gene expression microarray analysis (Affymetrix PrimeView) and GSEA
Assay type: cell-based, human
Design: RFU PODN (11730768_x_at) / Fold change /veh PODN (11730768_x_at) / RFU LINC00158 (11744669_a_at) / Fold change /veh LINC00158 (11744669_a_at) / RFU DUSP10 (11751237_a_at) / Fold change /veh DUSP10 (11751237_a_at) / RFU ID3 (11757404_x_at) / Fold change /veh ID3 (11757404_x_at) / RFU PLEKHG5 (11737974_s_at) / Fold change /veh PLEKHG5 (11737974_s_at) / RFU LRRC4B (11730491_at) / Fold change /veh LRRC4B (11730491_at) / RFU GIMAP4 (11747438_a_at) / Fold change /veh GIMAP4 (11747438_a_at) / RFU KRT8 (11758183_x_at) / Fold change /veh KRT8 (11758183_x_at) / RFU CNN1 (11734310_a_at) / Fold change /veh CNN1 (11734310_a_at) / RFU VPS37D (11726825_at) / Fold change /veh VPS37D (11726825_at) / RFU C10orf10 (11716522_x_at) / Fold change /veh C10orf10 (11716522_x_at) / RFU KIR2DL2 /// KIR2DL4 /// KIR2DL5A /// KIR2DL5B /// KIR2DS1 /// KIR2DS2 /// KIR2DS3 /// KIR2DS4 /// KIR3DL3 /// KIR3DL3 /// KIR3DS1 (11738374_at) / Fold change /veh KIR2DL2 /// KIR2DL4 /// KIR2DL5A /// KIR2DL5B /// KIR2DS1 /// KIR2DS2 /// KIR2DS3 /// KIR2DS4 /// KIR3DL3 /// KIR3DL3 /// KIR3DS1 (11738374_at) / RFU C1QL1 (11718748_at) / Fold change /veh C1QL1 (11718748_at) / RFU TMPRSS4 (11747572_a_at) / Fold change /veh TMPRSS4 (11747572_a_at) / RFU HAMP (11756126_x_at) / Fold change /veh HAMP (11756126_x_at) / RFU RNFT2 (11725882_a_at) / Fold change /veh RNFT2 (11725882_a_at) / RFU NR4A2 (11747474_a_at) / Fold change /veh NR4A2 (11747474_a_at) / RFU ABCC12 (11746883_a_at) / Fold change /veh ABCC12 (11746883_a_at) / RFU TMEM136 (11760407_x_at) / Fold change /veh TMEM136 (11760407_x_at) / RFU CLDN22 /// WWC2 (11732394_at) / Fold change /veh CLDN22 /// WWC2 (11732394_at) / RFU HLA-DPB1 (11760878_x_at) / Fold change /veh HLA-DPB1 (11760878_x_at) / RFU SPINT1 (11716480_a_at) / Fold change /veh SPINT1 (11716480_a_at) / RFU GAP43 (11754022_s_at) / Fold change /veh GAP43 (11754022_s_at) / RFU A4GNT (11735810_at) / Fold change /veh A4GNT (11735810_at) / RFU PRB3 (11715151_x_at) / Fold change /veh PRB3 (11715151_x_at) / RFU TUBB4B (11761932_at) / Fold change /veh TUBB4B (11761932_at) / RFU CAPN14 (11732068_a_at) / Fold change /veh CAPN14 (11732068_a_at) / RFU TMCC2 (11721928_a_at) / Fold change /veh TMCC2 (11721928_a_at) / RFU IRGQ (11745062_a_at) / Fold change /veh IRGQ (11745062_a_at) / RFU FAM174B (11720279_a_at) / Fold change /veh FAM174B (11720279_a_at) / RFU TMPRSS4 (11748680_a_at) / Fold change /veh TMPRSS4 (11748680_a_at) / RFU FAM212B (11763350_a_at) / Fold change /veh FAM212B (11763350_a_at) / RFU PLEKHG5 (11743358_a_at) / Fold change /veh PLEKHG5 (11743358_a_at) / RFU ZSCAN30 (11745921_a_at) / Fold change /veh ZSCAN30 (11745921_a_at) / RFU CMKLR1 (11741424_a_at) / Fold change /veh CMKLR1 (11741424_a_at) / RFU LOC101060620 /// MAPK8IP1 (11723275_at) / Fold change /veh LOC101060620 /// MAPK8IP1 (11723275_at) / RFU SPTSSB (11747773_x_at) / Fold change /veh SPTSSB (11747773_x_at) / RFU PRSS12 (11739890_at) / Fold change /veh PRSS12 (11739890_at) / RFU BIN1 (11741810_x_at) / Fold change /veh BIN1 (11741810_x_at) / RFU WNT11 (11732464_a_at) / Fold change /veh WNT11 (11732464_a_at) / RFU C10orf10 (11716521_a_at) / Fold change /veh C10orf10 (11716521_a_at) / RFU C5orf56 (11738089_at) / Fold change /veh C5orf56 (11738089_at) / RFU CYB561 (11721691_x_at) / Fold change /veh CYB561 (11721691_x_at) / RFU ANKRD19P (11752326_a_at) / Fold change /veh ANKRD19P (11752326_a_at) / RFU OR2T12 /// OR2T33 /// OR2T8 (11738714_s_at) / Fold change /veh OR2T12 /// OR2T33 /// OR2T8 (11738714_s_at) / RFU VCAN (11748164_a_at) / Fold change /veh VCAN (11748164_a_at) / RFU JSRP1 (11732532_at) / Fold change /veh JSRP1 (11732532_at) / RFU KRTAP10-11 (11738290_x_at) / Fold change /veh KRTAP10-11 (11738290_x_at) / RFU MYO3A (11730013_a_at) / Fold change /veh MYO3A (11730013_a_at) / RFU EBF3 (11725865_a_at) / Fold change /veh EBF3 (11725865_a_at) / RFU CAMK2N1 (11719241_x_at) / Fold change /veh CAMK2N1 (11719241_x_at) / RFU C5orf56 (11738088_a_at) / Fold change /veh C5orf56 (11738088_a_at) / RFU OLFML3 (11715873_a_at) / Fold change /veh OLFML3 (11715873_a_at) / RFU LOC100653217 /// NTM (11731650_a_at) / Fold change /veh LOC100653217 /// NTM (11731650_a_at) / RFU MAPK11 (11762145_a_at) / Fold change /veh MAPK11 (11762145_a_at) / RFU FIZ1 (11724087_x_at) / Fold change /veh FIZ1 (11724087_x_at) / RFU OASL (11726364_x_at) / Fold change /veh OASL (11726364_x_at) / RFU SOX15 (11748057_x_at) / Fold change /veh SOX15 (11748057_x_at) / RFU CD79A (11719716_a_at) / Fold change /veh CD79A (11719716_a_at) / RFU HIST1H1D (11736915_at) / Fold change /veh HIST1H1D (11736915_at) / RFU CASKIN2 (11723855_a_at) / Fold change /veh CASKIN2 (11723855_a_at) / RFU LOC730098 (11760151_x_at) / Fold change /veh LOC730098 (11760151_x_at) / RFU OR4N2 (11742367_at) / Fold change /veh OR4N2 (11742367_at) / RFU PRRT2 (11749266_a_at) / Fold change /veh PRRT2 (11749266_a_at) / RFU SNX32 (11753110_a_at) / Fold change /veh SNX32 (11753110_a_at) / RFU CDHR5 (11726645_a_at) / Fold change /veh CDHR5 (11726645_a_at) / RFU RCAN1 (11760418_a_at) / Fold change /veh RCAN1 (11760418_a_at) / RFU FAM167A (11723789_a_at) / Fold change /veh FAM167A (11723789_a_at) / RFU FAM26E (11764081_at) / Fold change /veh FAM26E (11764081_at) / RFU ISYNA1 (11749810_s_at) / Fold change /veh ISYNA1 (11749810_s_at) / RFU ACY1 (11761880_at) / Fold change /veh ACY1 (11761880_at) / RFU 11764098_at / Fold change /veh 11764098_at / RFU SAMD14 (11745864_x_at) / Fold change /veh SAMD14 (11745864_x_at) / RFU NPB (11741838_a_at) / Fold change /veh NPB (11741838_a_at) / RFU TMPRSS6 (11731388_a_at) / Fold change /veh TMPRSS6 (11731388_a_at) / RFU KRTAP10-2 (11738614_at) / Fold change /veh KRTAP10-2 (11738614_at) / RFU ARHGAP8 /// PRR5-ARHGAP8 (11727945_x_at) / Fold change /veh ARHGAP8 /// PRR5-ARHGAP8 (11727945_x_at) / RFU KRTAP5-7 /// NADSYN1 (11734609_at) / Fold change /veh KRTAP5-7 /// NADSYN1 (11734609_at) / RFU RASL12 (11751679_a_at) / Fold change /veh RASL12 (11751679_a_at) / RFU CDKN2B (11736163_a_at) / Fold change /veh CDKN2B (11736163_a_at) / RFU PRF1 (11729649_at) / Fold change /veh PRF1 (11729649_at) / RFU, ZNF638 /// ZNF638-IT1 / Fold change vs veh, ZNF638 /// ZNF638-IT1 / RFU, PANK3 / Fold change vs veh, PANK3 / RFU, SH3YL1 / Fold change vs veh, SH3YL1 / RFU, ZEB2 / Fold change vs veh, ZEB2 / RFU, NRIP1 / Fold change vs veh, NRIP1 / RFU, PTTG1IP / Fold change vs veh, PTTG1IP / RFU, CAPN2 / Fold change vs veh, CAPN2 / RFU, MED14 / Fold change vs veh, MED14 / RFU, SNORA58 / Fold change vs veh, SNORA58 / RFU, C1orf63 / Fold change vs veh, C1orf63 / RFU, LRRFIP1 / Fold change vs veh, LRRFIP1 / RFU, NDUFAF7 / Fold change vs veh, NDUFAF7 / RFU, SLC12A2 / Fold change vs veh, SLC12A2 / RFU, IBTK / Fold change vs veh, IBTK / RFU, ESF1 / Fold change vs veh, ESF1 / Fold change vs veh, TMEM50B / RFU, TAOK1 / Fold change vs veh, TAOK1 / RFU, ACBD3 / Fold change vs veh, ACBD3 / RFU, TMA16 / Fold change vs veh, TMA16 / RFU, RWDD3 / Fold change vs veh, RWDD3 / RFU, BCAT1 / Fold change vs veh, BCAT1 / RFU, EDEM3 / Fold change vs veh, EDEM3 / RFU, TMEM33 / Fold change vs veh, TMEM33 / RFU, WDR75 / Fold change vs veh, WDR75 / RFU, AHCTF1 / Fold change vs veh, AHCTF1 / RFU, TFRC / Fold change vs veh, TFRC / RFU, ZDHHC17 / Fold change vs veh, ZDHHC17 / RFU, NOM1 / Fold change vs veh, NOM1 / RFU, ARL8B / Fold change vs veh, ARL8B / RFU, ZBTB11 / Fold change vs veh, ZBTB11 / RFU, TAMM41 / Fold change vs veh, TAMM41 / RFU, KIAA1704 /// LOC100996395 / Fold change vs veh, KIAA1704 /// LOC100996395 / RFU, ING1 / Fold change vs veh, ING1 / RFU, TRMT61B / Fold change vs veh, TRMT61B / RFU, FUBP3 / Fold change vs veh, FUBP3 / RFU, TP53 / Fold change vs veh, TP53 / RFU, TNKS2 / Fold change vs veh, TNKS2 / RFU, ZFP14 / Fold change vs veh, ZFP14 / RFU, ACTR2 / Fold change vs veh, ACTR2 / RFU, PPP3R1 / Fold change vs veh, PPP3R1 / RFU, PIK3R1 / Fold change vs veh, PIK3R1 / RFU, HNRNPA1 / Fold change vs veh, HNRNPA1 / RFU, RNF170 / Fold change vs veh, RNF170 / RFU, ZNF28 / Fold change vs veh, ZNF28 / RFU, RNGTT / Fold change vs veh, RNGTT / RFU, OGT / Fold change vs veh, OGT / RFU, BRD1 / Fold change vs veh, BRD1 / RFU, MARS / Fold change vs veh, MARS / RFU, ZNF655 / Fold change vs veh, ZNF655 / RFU, FAHD1 / Fold change vs veh, FAHD1 / RFU, BDP1 / Fold change vs veh, BDP1 / RFU, LRRCC1 / Fold change vs veh, LRRCC1 / RFU, ARID1A / Fold change vs veh, ARID1A / RFU, ZNF146 / Fold change vs veh, ZNF146 / RFU, ZNF330 / Fold change vs veh, ZNF330 / RFU, GPN3 / Fold change vs veh, GPN3 / RFU, C9orf123 / Fold change vs veh, C9orf123 / RFU, N4BP2L2 / Fold change vs veh, N4BP2L2 / RFU, ARFIP1 / Fold change vs veh, ARFIP1 / RFU, FAM179B / Fold change vs veh, FAM179B / RFU, BCL10 / Fold change vs veh, BCL10 / RFU, UHRF1BP1L / Fold change vs veh, UHRF1BP1L / RFU, BET1 / Fold change vs veh, BET1 / RFU, CNOT2 / Fold change vs veh, CNOT2 / RFU, ZNF268 / Fold change vs veh, ZNF268 / Fold change vs veh, ZNF507 / RFU, DGCR2 / Fold change vs veh, DGCR2 / RFU, WDSUB1 / Fold change vs veh, WDSUB1 / Fold change vs veh, HSP90B1 /// MIR3652 / RFU, ADSS / Fold change vs veh, ADSS / RFU, GK / Fold change vs veh, GK / RFU, ZNF148 / Fold change vs veh, ZNF148 / RFU, TAF9 / Fold change vs veh, TAF9 / RFU, SLC1A5 / Fold change vs veh, SLC1A5 / RFU, SLMO2 / Fold change vs veh, SLMO2 / RFU, ABCC4 / Fold change vs veh, ABCC4 / RFU, LOC101060439 /// RAP1B / Fold change vs veh, LOC101060439 /// RAP1B / RFU, RFX7 / Fold change vs veh, RFX7 / RFU, GTPBP10 / Fold change vs veh, GTPBP10 / RFU, CNEP1R1 / Fold change vs veh, CNEP1R1 / RFU, BIVM-ERCC5 /// ERCC5 / Fold change vs veh, BIVM-ERCC5 /// ERCC5 / RFU, ILF3 / Fold change vs veh, ILF3 / RFU 11762660_at / Fold change /veh 11762660_at / RFU VCAN (11757783_s_at) / Fold change /veh VCAN (11757783_s_at) / RFU DDX43 (11728927_at) / Fold change /veh DDX43 (11728927_at) / RFU KRT8 (11758188_x_at) / Fold change /veh KRT8 (11758188_x_at) / RFU NKD1 (11759106_at) / Fold change /veh NKD1 (11759106_at) / RFU SRD5A1 (11742802_a_at) / Fold change /veh SRD5A1 (11742802_a_at) / RFU TPSAB1 /// TPSB2 (11721975_s_at) / Fold change /veh TPSAB1 /// TPSB2 (11721975_s_at) / RFU GSTM3 (11746129_a_at) / Fold change /veh GSTM3 (11746129_a_at) / RFU IL23R (11737362_x_at) / Fold change /veh IL23R (11737362_x_at) / RFU TMEM51 (11727254_a_at) / Fold change /veh TMEM51 (11727254_a_at) / RFU PIWIL2 (11732686_x_at) / Fold change /veh PIWIL2 (11732686_x_at) / RFU ORM1 (11744905_x_at) / Fold change /veh ORM1 (11744905_x_at) / RFU CCDC152 (11743942_at) / Fold change /veh CCDC152 (11743942_at) / RFU ECM1 (11717891_a_at) / Fold change /veh ECM1 (11717891_a_at) / RFU IL23R (11748794_a_at) / Fold change /veh IL23R (11748794_a_at) / RFU TNFAIP8L3 (11732012_x_at) / Fold change /veh TNFAIP8L3 (11732012_x_at) / RFU MBOAT4 (11741988_at) / Fold change /veh MBOAT4 (11741988_at) / RFU 11764193_at / Fold change /veh 11764193_at / RFU TMEM53 (11763286_at) / Fold change /veh TMEM53 (11763286_at) / RFU MAGEB2 (11727129_at) / Fold change /veh MAGEB2 (11727129_at) / RFU TMEM200A (11744735_a_at) / Fold change /veh TMEM200A (11744735_a_at) / RFU CCDC152 (11751479_a_at) / Fold change /veh CCDC152 (11751479_a_at) / RFU FAM211A (11726209_a_at) / Fold change /veh FAM211A (11726209_a_at) / RFU RGS16 (11746705_a_at) / Fold change /veh RGS16 (11746705_a_at) / RFU VCAN (11755009_s_at) / Fold change /veh VCAN (11755009_s_at) / RFU RHOB (11743442_s_at) / Fold change /veh RHOB (11743442_s_at) / RFU RGS16 (11720943_a_at) / Fold change /veh RGS16 (11720943_a_at) / RFU RGS16 (11720944_at) / Fold change /veh RGS16 (11720944_at) / RFU, VPS4B / Fold change vs veh, VPS4B / RFU, CREB1 / Fold change vs veh, CREB1 / RFU, DNAJC13 / Fold change vs veh, DNAJC13 / RFU, GNAQ / Fold change vs veh, GNAQ / RFU, CDK5R1 / Fold change vs veh, CDK5R1 / RFU, ZRANB3 / Fold change vs veh, ZRANB3 / RFU, CUL4A / Fold change vs veh, CUL4A / RFU, CCNY / Fold change vs veh, CCNY / RFU, UFL1 / Fold change vs veh, UFL1 / RFU, COG3 / Fold change vs veh, COG3 / RFU, DIAPH2 / Fold change vs veh, DIAPH2 / RFU, SKA2 / Fold change vs veh, SKA2 / RFU, AFF3 / Fold change vs veh, AFF3 / RFU, LMF1 / Fold change vs veh, LMF1 / RFU, IPO11 / Fold change vs veh, IPO11 / RFU, DFFB / Fold change vs veh, DFFB / RFU, FOXP1 / Fold change vs veh, FOXP1 / RFU, CARD8 / Fold change vs veh, CARD8 / RFU, STRN3 / Fold change vs veh, STRN3 / RFU, ADK / Fold change vs veh, ADK / RFU, RASSF2 / Fold change vs veh, RASSF2 / RFU, WIPF1 / Fold change vs veh, WIPF1 / RFU, LARP1B / Fold change vs veh, LARP1B / RFU, RASA1 / Fold change vs veh, RASA1 / RFU, RB1 / Fold change vs veh, RB1 / RFU, PPFIA1 / Fold change vs veh, PPFIA1 / RFU, MAT2A / Fold change vs veh, MAT2A / RFU, CCT5 / Fold change vs veh, CCT5 / RFU, WDR92 / Fold change vs veh, WDR92 / RFU, CUX1 / Fold change vs veh, CUX1 / RFU, TTC7A / Fold change vs veh, TTC7A / RFU, TMEM135 / Fold change vs veh, TMEM135 / RFU, DEPTOR / Fold change vs veh, DEPTOR / RFU, CPM / Fold change vs veh, CPM / RFU, DNAJB6 / Fold change vs veh, DNAJB6 / RFU, CACNA2D3 / Fold change vs veh, CACNA2D3 / RFU, DTX4 / Fold change vs veh, DTX4 / RFU, TFCP2 / Fold change vs veh, TFCP2 / RFU, GMCL1 /// GMCL1P1 / Fold change vs veh, GMCL1 /// GMCL1P1 / RFU, AEBP2 / Fold change vs veh, AEBP2 / RFU, SNHG1 /// SNORD22 /// SNORD25 /// SNORD26 /// SNORD27 /// SNORD28 /// SNORD29 /// SNORD31 / Fold change vs veh, SNHG1 /// SNORD22 /// SNORD25 /// SNORD26 /// SNORD27 /// SNORD28 /// SNORD29 /// SNORD31 / Fold change (Aza/veh), C12orf56 (ProbeSet 11735607_a_at) / Fold change (ACY-1035/veh), C12orf56 (ProbeSet 11735607_a_at) / Fold change (Aza/veh), FGFR1OP (ProbeSet 11751329_s_at) / Fold change (ACY-1035/veh), FGFR1OP (ProbeSet 11751329_s_at) / Fold change (Aza/veh), VPS36 (ProbeSet 11739960_a_at) / Fold change (ACY-1035/veh), VPS36 (ProbeSet 11739960_a_at) / RFU SYPL1 (11715823_x_at) / Fold change /veh SYPL1 (11715823_x_at) / RFU IGFBP7 (11715501_s_at) / Fold change /veh IGFBP7 (11715501_s_at) / RFU REEP3 (11722064_at) / Fold change /veh REEP3 (11722064_at) / RFU IGLL1 (11728026_x_at) / Fold change /veh IGLL1 (11728026_x_at): dose or concentration left out as unconfirmed
Settings: ProbeSet 11721521_at; LIST B

Nc1ncn([C@@H]2O[C@H](CO)[C@@H](O)[C@H]2O)c(=O)n1 [azacitidine]
Fold change vs veh, ZDHHC17: 0.88
